Laboratory results from patent US9636427B2, “Process for preparing a pharmaceutical formulation of contrast agents” (GUERBET, priority 2008, dated 2017).

experiment: Lethal dose (LD50) of free macrocyclic chelates, excipients X[X',L] and Gd chelates, table 1 of U.S. Pat. No. 7,385,041; settings: times better LD50 than free DOTA

| Structure (SMILES) | LD50 of Na2[Ca-DOTA] relative to free DOTA |
| --- | --- |
| O=C([O-])CN1CCN(CC(=O)[O-])CCN(CC(=O)[O-])CCN(CC(=O)[O-])CC1.[Ca+2].[Na+].[Na+] [Na2 [Ca-DOTA]] | at least 40 times |

experiment: not given; settings: values from table 1 of U.S. Pat. No. 7,385,041; cited from earlier work

| Structure (SMILES) | Letal dose (LD 50) [mmol/kg] |
| --- | --- |
| O=C(O)CN1CCN(CC(=O)O)CCN(CC(=O)O)CCN(CC(=O)O)CC1 [DOTA, 1,4,7,10-Tetraazacyclododecane-N,N′,N″,N″′-tetraacetic acid] | 0.18 |
| CC(O)CN1CCN(CC(=O)[O-])CCN(CC(=O)[O-])CCN(CC(=O)[O-])CC1.CC(O)CN1CCN(CC(=O)[O-])CCN(CC(=O)[O-])CCN(CC(=O)[O-])CC1.[Ca+2].[Ca+2].[Ca+2] (stereo not drawn) [Ca[Ca-HPDO3A]2] | 1.3 |
| O=C([O-])CN1CCN(CC(=O)[O-])CCN(CC(=O)[O-])CCN(CC(=O)[O-])CC1.[Ca+2].[Na+].[Na+] [Na2 [Ca-DOTA]] | >7 |
| CC(O)CN1CCN(CC(=O)O)CCN(CC(=O)O)CCN(CC(=O)O)CC1 (stereo not drawn) [HP-DO3A] | 0.11 |
| O=C([O-])CN1CCNCCN(CC(=O)[O-])CCN(CC(=O)[O-])CC1.O=C([O-])CN1CCNCCN(CC(=O)[O-])CCN(CC(=O)[O-])CC1.[Ca+2].[Ca+2].[Ca+2] [Ca[Ca-DO3A]2.] | 1.6 |
| CC(O)CN1CCN(CC(=O)[O-])CCN(CC(=O)[O-])CCN(CC(=O)[O-])CC1.[Gd+3] (stereo not drawn) [HP-DO3A-Gd] | 12 |
| O=C(O)CN1CCNCCN(CC(=O)O)CCN(CC(=O)O)CC1 [DO3A] | 0.12 |
| O=C([O-])CN1CCN(CC(=O)[O-])CCN(CC(=O)O)CCN(CC(=O)[O-])CC1.[Gd+3] [DOTA-Gd] | 14 |
